≈ marks a conversion by molar mass, not a printed value. Where a SMILES comes first, the peptide text is derived from it. The star is where a group is joined. Butanoyl(2,2-Me2) = CCC(C)(C)C(=O)*; Octanoyl(6-Me) = CCC(C)CCCCC(=O)*

We go through 2 molecules from paper PMC4491869, “Antimicrobial activity of synthetic cationic peptides and lipopeptides derived from human lactoferricin against Pseudomonas aeruginosa planktonic cultures and biofilms” (BMC Microbiology, 2015).

The test system of data set [1] is Pseudomonas aeruginosa PAO1 planktonic cells. Format: cell-based. To be noted: PAO1, 24 h. Here is the method:
Minimal inhibitory concentrations (MIC) of the peptides were determined in Mueller Hinton (MH) medium (Difco Laboratories, Detroit, MI, USA) by the broth microdilution assay following recommendations of the Clinical and Laboratory Standards Institute (CLSI, formerly NCCLS) with some modifications. Minimum bactericidal concentration (MBC) was defined as the concentration that caused a 3-log viability decrease in the initial inoculum and was calculated by colony counts on TSA plates incubated for 24 h at 37 °C.

The test system of a further data set is P. aeruginosa PAO1. Nature of the data set: Time-kill curves (T3log). To be noted: MH, 37 °C with shaking, sampling 15 min to 6 h. Format: cell-based, Pseudomonas aeruginosa. Here is the method: Time-kill studies were determined with glass tubes containing 10 ml of MH and different concentrations of the peptides (1, 2 and 4 times their MIC). Overnight cultures of P. aeruginosa PAO1 in TSB were adjusted at 5 × 10^7 CFU/ml turbidimetrically. This […] suspension was diluted in the MH tubes (1:50) for the time-kill assay. Tubes were incubated at 37 °C with shaking and samples were taken at the following time points after the beginning of incubation: 15 min, 30 min, 45 min, 1 h, 2 h, 4 h and 6 h. Each sample was serially diluted and plated. The lower limit of detection was 30 CFU/ml (1.5 × log10 CFU/ml).
To quantify the killing efficiency of the treatments, the parameter T3log (defined as the time required for the treatment to decrease 3 logs the initial inoculum) was used.

In data set [2] the test system is P. aeruginosa PAO1 biofilms. Format: cell-based, Pseudomonas aeruginosa. To be noted: 10XMIC, 24 h at 37 °C, biofilms grown in microplates (static conditions). As for the experimental part:
In the microplate based assay, biofilms were grown with no fluid shear and the anti-biofilm activity of peptides was assessed as previously described with some modifications. Briefly, overnight cultures of P. aeruginosa PAO1 in TSB were adjusted at 5 × 10^7 CFU/ml turbidimetrically. This suspension was diluted in TSB (1:100) and 100 μl aliquots were added to the wells of a 96-well plate. After 24 h incubation at 37 °C, planktonic bacteria were removed by gently inverting the plate and then the biofilm-containing wells were washed with saline (0.85 % NaCl). The antimicrobial compound was serially diluted in Mueller Hinton (MH) at final concentrations higher than its planktonic MIC and 200 μl of each dilution was added to the wells. After 24 h incubation at 37 °C, biofilms were stained with either MTT (Sigma, St. Louis, MO, USA) or crystal violet (CV). As control, duplicate biofilms were incubated with MH containing no antimicrobial.
To quantify the disinfection (or bactericidal) activity of the antimicrobials on the biofilms, the MTT assay was used and performed as follows. After the treatment, the biofilms were rinsed with saline and 200 μl of a 0.5 mg/ml dilution of MTT in MH, was added to the wells. Incubation of biofilm with MTT was carried out during 4 h at 37 °C with no shaking. As a measure of cell viability, the conversion of MTT to a […] was determined by solubilizing the salt in 100 μl/well of DMSO and reading the absorbance of the resulting solution at 540 nm.
Both the disinfection and removal activity of antimicrobials were expressed as “activity percentage”, a parameter that was calculated using the following formula: ActivityPercentage=C−B−T−B/C−B×100
Where C is the absorbance value of the control well with non-treated biofilm, T corresponds to the absorbance value of the well with treated biofilm and B is the blank well (i.e. with no biofilm).

The test system of data set [3] is P. aeruginosa PAO1 pMF230 biofilm. Kind of data set: CDC-reactor biofilm assay, confocal laser scanning microscopy (GFP/PI). To be noted: 10XMIC, 60 min, CLSM, determined by volume. Format: cell-based, Pseudomonas aeruginosa. Here is the method:
(§1) Briefly, 1 ml of an overnight culture of P. aeruginosa PAO1 pMF230 was inoculated into 350 ml of TSB and this suspension was used to fill the reactor chamber. After 24 h of growth in batch culture at 37 °C with magnetic agitation, a continuous flow of TSB (3 g/l) was applied to the reactor chamber at a rate of 11 ml/min. Under these conditions, a dense biofilm develops on the surface of small disks called coupons that are constantly bathed in fresh culture medium. After 24 h incubation, the coupons were removed from the chamber and planktonic cells were eliminated by rinsing the coupons with saline. […]
(§2) For the microscopic assessment of anti-biofilm activity, biofilms grown and treated on coupons as detailed above were soaked in a 120 μM solution of propidium iodide (PI, live/dead® Baclight™ bacterial viability kit, Invitrogen, Carlsbad, CA, USA) in filter-sterilized distilled water and incubated for 15 min at room temperature. Then, coupons were rinsed in filter-sterilized distilled water and their surface was examined by fluorescence microscopy using FITC filter (green fluorescence: λexcitation, 499 nm; λemission, 519 nm) and TRITC filter (red fluorescence: λexcitation, 552 nm; λemission, 578 nm). […] Microscope images were analyzed with the software Imaris® × 64 5.7.2. […]

Another data set deals with HeLa cells. Nature of the data set: Cytotoxicity assay (MTT). Format: cell-based. Here is the method:
Cytotoxicity was assayed on HeLa cells using the MTT [3-(4,5-dimethylthiazoyl-2-yl) 2,5 diphenyltetrazolium bromide protocol. Cells were grown in Dulbeccos’s modified Eagle’s medium (DMEM) and adjusted to a concentration of 10^5 cells/ml (MTT) in 96 wells polystyrene plates. Plates were incubated for 24 h at 37 °C in 5 % CO2, then supplemented with increasing amounts of peptides diluted in 2 mM Hepes pH 7.2, and incubation carried on for 24 h under the same conditions. After this time, filter-sterilized MTT was added in different plates. After 3 h, the content of the wells was gently solved and mixed with 100 μl of DMSO (MTT). Absorbance was measured at 540 nm. Compound cytotoxicity was expressed as LC50, the concentration of the compound that is lethal to 50 % of the cells.

The test system of data set [4] is P. aeruginosa PAO1 pMF230 biofilm. Nature of the data set: CDC-reactor biofilm assay, fluorescence microscopy (GFP/PI). Format: cell-based, Pseudomonas aeruginosa. To be noted: 10XMIC, 60 min, CDC-reactor coupons; compared with 24 h microplate assay. Here is the method:
as §1, §2

The subject of another data set is S. aureus. Kind of data set: MIC against S. aureus. Format: cell-based. To be noted: data not shown.

Turning to `CC[C@H](C)[C@H](NC(=O)[C@H](CCCNC(=N)N)NC(=O)[C@@H](NC(=O)[C@H](CCCNC(=N)N)NC(=O)[C@H](Cc1c[nH]c2ccccc12)NC(=O)[C@H](Cc1ccccc1)NC(=O)[C@@H]1CCCN1C(=O)C(C)(C)CC)[C@@H](C)CC)C(=O)N[C@@H](CCCNC(=N)N)C(=O)N[C@@H](CCCNC(=N)N)C(N)=O` [DI-MB-LF11-322, 2,2-dimethylbutanoyl-PFWRIRIRR] ({Butanoyl(2,2-Me2)}-PFWRIRIRR-NH2), in data set [1], the “MBC (minimal bactericidal concentration)” value came out at 32 µg/mL (≈ 22.9 µM) and the “MIC (minimal inhibitory concentration)” value stood at 32 µg/mL (≈ 22.9 µM). Also, in the data set on P. aeruginosa PAO1, the “T3log at 1X MIC (time needed to decrease 3 logs the initial inoculum)” value was determined as 12 minutes, the “T3log at 2X MIC (time needed to decrease 3 logs the initial inoculum)” value is on record as 11 minutes and the “T3log at 4X MIC (time needed to decrease 3 logs the initial inoculum)” value was 10 minutes. Also, in data set [2], the “Disinfection activity (biofilm-forming bacteria killed, MTT test)” value is “medium-range disinfection activity”. The “Percentage of dead (red) cells in the biofilm volume” value in data set [3] is recorded as 99.81%. The “LC50 expressed as multiple of the MIC” value in the data set with HeLa cells was ~2 XMIC. The “LC50 (concentration lethal to 50 % of the cells)” value in the data set with HeLa cells (HeLa cells, 24 h, MTT) is 80 µg/mL. In addition, in data set [4], the “Anti-biofilm activity under static and dynamic conditions (fluorescence microscopy)” value is on record as “potent anti-biofilm activity”.
For `CCC(C)CCCCC(=O)N[C@@H](Cc1ccccc1)C(=O)N[C@@H](Cc1c[nH]c2ccccc12)C(=O)N[C@@H](CCCNC(=N)N)C(=O)N[C@@H](CCCNC(=N)N)C(=O)N[C@@H](Cc1ccccc1)C(=O)N[C@@H](Cc1c[nH]c2ccccc12)C(=O)N[C@@H](CCCNC(=N)N)C(=O)N[C@@H](CCCNC(=N)N)C(N)=O` (stereo partly shown) [6-MO-LF11-227] ({Octanoyl(6-Me)}-FWRRFWRR-NH2), in data set [1], the “MBC (minimal bactericidal concentration)” value was found to be 128 µg/mL (≈ 88.3 µM) and the “MIC (minimal inhibitory concentration)” value was 128 µg/mL (≈ 88.3 µM). For the same molecule, in the data set on P. aeruginosa PAO1, the “T3log at 1X MIC (time needed to decrease 3 logs the initial inoculum)” value is 10 minutes, the “T3log at 2X MIC (time needed to decrease 3 logs the initial inoculum)” value is 10 minutes and the “T3log at 4X MIC (time needed to decrease 3 logs the initial inoculum)” value was found to be 10 minutes. In the data set on S. aureus, the “MIC against S. aureus compared with non-acylated counterpart” value is given as “eight times lower”.
